In patent publication US10358446B2, “Bruton's tyrosine kinase inhibitors” (Zibo Biopolar Changsheng Pharmaceutical Co. Ltd., priority 2015, dated 2019):

Each molecule was assayed against BTK (Homo sapiens (Human), UniProt Q06187) (assay: Btk kinase assay (HTRF)). Conditions: [ATP]=80 μM, BTK=3.4 nM; read-out: BTK Inhibition.
Type: biochemical
In short: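 HTRF kinase read-out (665/615 nm ratio, excitation 330 nm) after EDTA quench and 1 h detection incubation. Reaction: 3.4 nM BTK, ATP 80 μM, peptide substrate 1 μM, compound, HEPES pH 7.0 buffer, 1 h; IC50 derived using uninhibited and enzyme-free controls.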

Chain of BTK (Q06187 whole entry, species assumed): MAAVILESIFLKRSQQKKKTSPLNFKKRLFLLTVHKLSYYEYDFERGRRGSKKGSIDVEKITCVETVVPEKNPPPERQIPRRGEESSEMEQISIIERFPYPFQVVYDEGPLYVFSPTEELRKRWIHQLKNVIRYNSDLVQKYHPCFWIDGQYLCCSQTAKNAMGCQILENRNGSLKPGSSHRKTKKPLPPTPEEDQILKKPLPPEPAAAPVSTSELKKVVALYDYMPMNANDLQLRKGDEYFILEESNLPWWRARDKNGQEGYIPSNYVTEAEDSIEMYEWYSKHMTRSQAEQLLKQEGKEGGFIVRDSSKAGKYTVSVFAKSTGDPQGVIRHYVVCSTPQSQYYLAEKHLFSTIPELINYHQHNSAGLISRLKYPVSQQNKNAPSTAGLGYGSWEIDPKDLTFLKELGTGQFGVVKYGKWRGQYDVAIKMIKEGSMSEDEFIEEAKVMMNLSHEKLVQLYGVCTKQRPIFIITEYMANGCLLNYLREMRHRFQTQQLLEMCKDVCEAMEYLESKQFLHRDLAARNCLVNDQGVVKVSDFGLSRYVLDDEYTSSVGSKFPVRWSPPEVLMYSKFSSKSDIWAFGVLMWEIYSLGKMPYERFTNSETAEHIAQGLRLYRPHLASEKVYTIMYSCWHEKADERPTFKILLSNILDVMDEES

Row | Compound | IC50
1 | C=CC(=O)N1CC[C@@H](n2c(=O)n(-c3cccc(-c4ccccc4)c3)c3cnccc32)C1 [Example 277, (R)-3-([1,1′-biphenyl]-3-yl)-1-(1-acryloylpyrrolidin-3-yl)-1H-imidazo[4,5-c]pyridin-2(3H)-one] | 100 to 1000 nM
2 | C=CC(=O)N1CCC[C@@H](n2c(=O)n(-c3ccc(Oc4cccc(F)c4C)cc3)c3cnccc32)C1 [Example 57, (R)-1-(1-acryloylpiperidin-3-yl)-3-(4-(3-fluoro-2-methylphenoxy)phenyl)-1H-imidazo[4,5-c]pyridin-2(3H)-one] | 10 to 100 nM
3 | C=CC(=O)Nc1cccc(-n2c(=O)n(-c3ccc(OCc4ccccc4C(F)(F)F)cc3)c3cnccc32)c1 [Example 232, N-(3-(2-oxo-3-(4-((2-(trifluoromethyl)benzyl)oxy)phenyl)-2,3-dihydro-1H-imidazo[4,5-c]pyridin-1-yl)phenyl)acrylamide] | 10 to 100 nM
4 | C=CC(=O)N1CCC[C@@H](n2c(=O)n(-c3ccc(Oc4cccc(Cl)c4OC)cc3)c3cnccc32)C1 [Example 64, (R)-1-(1-acryloylpiperidin-3-yl)-3-(4-(3-chloro-2-methoxyphenoxy)phenyl)-1H-imidazo[4,5-c]pyridin-2(3H)-one] | 100 to 1000 nM
5 | C=CC(=O)N1CCC[C@@H](n2c(=O)n(-c3ccc(Oc4cccc(OC)c4F)cc3)c3cnccc32)C1 [Example 186, (R)-1-(1-acryloylpiperidin-3-yl)-3-(4-(2-fluoro-3-methoxyphenoxy)phenyl)-1H-imidazo[4,5-c]pyridin-2(3H)-one] | ≤ 10 nM
6 | C=CC(=O)Nc1cccc(-n2c(=O)n(-c3ccc(Oc4cccc(C)c4)c(Cl)c3)c3cnccc32)c1 [Example 144, N-(3-(3-(3-chloro-4-(m-tolyloxy)phenyl)-2-oxo-2,3-dihydro-1H-imidazo[4,5-c]pyridin-1-yl)phenyl)acrylamide] | 10 to 100 nM
7 | C=CC(=O)N1CC[C@@H](n2c(=O)n(-c3ccc(Oc4cccc(C5CC5)c4)cc3)c3cnccc32)C1 [Example 10, (R)-1-(1-acryloylpyrrolidin-3-yl)-3-(4-(3-cyclopropylphenoxy)phenyl)-1H-imidazo[4,5-c]pyridin-2(3H)-one] | 100 to 1000 nM
8 | C=CC(=O)N1CC[C@@H](n2c(=O)n(-c3ccc(Oc4cccc(Cl)c4C)cc3)c3cnccc32)C1 [Example 139, (R)-1-(1-acryloylpyrrolidin-3-yl)-3-(4-(3-chloro-2-methylphenoxy)phenyl)-1H-imidazo[4,5-c]pyridin-2(3H)-one] | 10 to 100 nM
9 | C=CC(=O)N1CC[C@@H](n2c(=O)n(-c3ccc(OCc4ccc(Cl)c(Cl)c4)cc3)c3cnccc32)C1 [Example 198, (R)-1-(1-acryloylpyrrolidin-3-yl)-3-(4-((3,4-dichlorobenzyl)oxy)phenyl)-1H-imidazo[4,5-c]pyridin-2(3H)-one] | 100 to 1000 nM
10 | CN(C/C=C/C(=O)N1CC[C@@H](n2c(=O)n(-c3ccc(Oc4ccccc4)cc3)c3cnccc32)C1)C1CC1 [Example 187, (R,E)-1-(1-(4-(cyclopropyl(methyl)amino)but-2-enoyl)pyrrolidin-3-yl)-3-(4-phenoxyphenyl)-1H-imidazo[4,5-c]pyridin-2(3H)-one] | 100 to 1000 nM
11 | C=CC(=O)Nc1cccc(-n2c(=O)n(-c3ccc(Oc4cccc(OC)c4)c(Cl)c3)c3cnccc32)c1 [Example 86, N-(3-(3-(3-chloro-4-(3-methoxyphenoxy)phenyl)-2-oxo-2,3-dihydro-1H-imidazo[4,5-c]pyridin-1-yl)phenyl)acrylamide] | 100 to 1000 nM
12 | C=CC(=O)Nc1cccc(-n2c(=O)n(-c3ccc(Oc4cccc(Cl)c4C)cc3)c3cnccc32)c1 [Example 150, N-(3-(3-(4-(3-chloro-2-methylphenoxy)phenyl)-2-oxo-2,3-dihydro-1H-imidazo[4,5-c]pyridin-1-yl)phenyl)acrylamide] | 10 to 100 nM
13 | C=CC(=O)N1CC[C@@H](n2c(=O)n(-c3ccc(OCc4ccc(F)cc4F)c(Cl)c3)c3cnccc32)C1 [Example 202, (R)-1-(1-acryloylpyrrolidin-3-yl)-3-(3-chloro-4-((2,4-difluorobenzyl)oxy)phenyl)-1H-imidazo[4,5-c]pyridin-2(3H)-one] | 100 to 1000 nM
14 | C=CC(=O)N1CC[C@@H](n2c(=O)n(-c3ccc(Oc4cc(Cl)cc(OC)c4)cc3)c3cnccc32)C1 [Example 9, (R)-1-(1-acryloylpyrrolidin-3-yl)-3-(4-(3-chloro-5-methoxyphenoxy)phenyl)-1H-imidazo[4,5-c]pyridin-2(3H)-one] | 10 to 100 nM

The next lines start with the values.

Row | IC50 | Compound
15 | ≤ 10 nM | C=CC(=O)N1CC[C@@H](n2c(=O)n(-c3ccc(Oc4cccc(F)c4)c(Cl)c3)c3cnccc32)C1 [Example 41, (R)-1-(1-acryloylpyrrolidin-3-yl)-3-(3-chloro-4-(3-fluorophenoxy)phenyl)-1H-imidazo[4,5-c]pyridin-2(3H)-one]
16 | 10 to 100 nM | C=CC(=O)N1CC[C@@H](n2c(=O)n(-c3ccc(Oc4ccccc4)c(F)c3)c3cnccc32)C1 [Example 95, (R)-1-(1-acryloylpyrrolidin-3-yl)-3-(3-fluoro-4-phenoxyphenyl)-1,3-dihydro-2H-imidazo[4,5-c]pyridin-2-one]
17 | 100 to 1000 nM | C=CC(=O)N1CC[C@@H](n2c(=O)n(-c3ccc(OCc4cccc(C(F)(F)F)c4)c(Cl)c3)c3cnccc32)C1 [Example 200, (R)-1-(1-acryloylpyrrolidin-3-yl)-3-(3-chloro-4-((3-(trifluoromethyl)benzyl)oxy)phenyl)-1H-imidazo[4,5-c]pyridine-2(3H)-one]
18 | 10 to 100 nM | C=CC(=O)N1CC[C@@H](n2c(=O)n(-c3ccc(Oc4cccc(Cl)c4F)c(F)c3)c3cnccc32)C1 [Example 101, (R)-1-(1-acryloylpyrrolidin-3-yl)-3-(4-(3-chloro-2-fluorophenoxy)-3-fluorophenyl)-1,3-dihydro-2H-imidazo[4,5-c]pyridin-2-one]
19 | 10 to 100 nM | C=CC(=O)Nc1cccc(-n2c(=O)n(-c3ccc(C4CC4)cc3)c3cnccc32)c1 [Example 278, N-(3-(3-(4-cyclopropylphenyl)-2-oxo-2,3-dihydro-1H-imidazo[4,5-c]pyridin-1-yl)phenyl)acrylamide]
20 | 100 to 1000 nM | C=CC(=O)Nc1cccc(-n2c(=O)n(-c3ccc(NC(=O)c4cccc(F)c4)cc3)c3cnccc32)c1 [Example 265, N-(4-(1-(3-acrylamidophenyl)-2-oxo-1H-imidazo[4,5-c]pyridin-3(2H)-yl)phenyl)-3-fluorobenzamide]
21 | 100 to 1000 nM | C=CC(=O)Nc1cccc(-n2c(=O)n(-c3ccc(Oc4cc(Cl)cc(OC)c4)cc3)c3cnccc32)c1 [Example 71, N-(3-(3-(4-(3-chloro-5-methoxyphenoxy)phenyl)-2-oxo-2,3-dihydro-1H-imidazo[4,5-c]pyridin-1-yl)phenyl)acrylamide]
22 | 10 to 100 nM | C=CC(=O)N1CC[C@@H](n2c(=O)n(-c3ccc(Oc4ccc(OC)cc4)cc3)c3cnccc32)C1 [Example 35, (R)-1-(1-acryloylpyrrolidin-3-yl)-3-(4-(4-methoxyphenoxy)phenyl)-1H-imidazo[4,5-c]pyridin-2(3H)-one]
23 | 100 to 1000 nM | C=CC(=O)Nc1cccc(-n2c(=O)n(-c3ccc(Oc4ccc(C#N)cc4)cc3)c3cnccc32)c1 [Example 162, N-(3-(3-(4-(4-cyanophenoxy)phenyl)-2-oxo-2,3-dihydro-1H-imidazo[4,5-c]pyridin-1-yl)phenyl)acrylamide]
24 | 1000 to 10000 nM | C=CC(=O)Nc1cccc(-n2c(=O)n(-c3ccc(Oc4ccccc4)c(C)c3)c3cnccc32)c1 [Example 27, N-(3-(3-(3-methyl-4-phenoxyphenyl)-2-oxo-2,3-dihydro-1H-imidazo [4,5-c]pyridin-1-yl)phenyl)acrylamide]
25 | 100 to 1000 nM | C=CC(=O)Nc1cccc(-n2c(=O)n(-c3ccc(Oc4ccc(Cl)c(F)c4)cc3)c3cnccc32)c1 [Example 160, N-(3-(3-(4-(4-chloro-3-fluorophenoxy)phenyl)-2-oxo-2,3-dihydro-1H-imidazo[4,5-c]pyridin-1-yl)phenyl)acrylamide]
26 | ≥ 10000 nM | C=CC(=O)Nc1cccc(-n2c(=O)n(-c3ccc(-c4cccc(C)c4)cc3)c3cnccc32)c1 [Example 270, N-(3-(3-(3′-methyl-[1,1′-biphenyl]-4-yl)-2-oxo-2,3-dihydro-1H-imidazo[4,5-c]pyridin-1-yl)phenyl)acrylamide]
27 | 10 to 100 nM | C=CC(=O)N1CC[C@@H](n2c(=O)n(-c3ccc(OCc4ccccc4C(F)(F)F)cc3)c3cnccc32)C1 [Example 210, (R)-1-(1-acryloylpyrrolidin-3-yl)-3-(4-((2-(trifluoromethyl)benzyl)oxy)phenyl)-1H-imidazo[4,5-c]pyridine-2(3H)-one]
28 | 100 to 1000 nM | C=CC(=O)N1CC[C@@H](n2c(=O)n(-c3ccc(NC(=O)c4ccc(OC)c(C(F)(F)F)c4)cc3)c3cnccc32)C1 [Example 268, (R)-N-(4-(1-(1-acryloylpyrrolidin-3-yl)-2-oxo-1H-imidazo[4,5-c]pyridin-3(2H)-yl)phenyl)-4-methoxy-3-(trifluoromethyl)benzamide]
29 | 10 to 100 nM | C=CC(=O)N1CCC(n2c(=O)n(-c3ccc(Oc4cccc(OC)c4)c(C)c3)c3cnccc32)C1 (centres unmarked) [Example 92, 1-(1-acryloylpyrrolidin-3-yl)-3-(4-(3-methoxyphenoxy)-3-methylphenyl)-1,3-dihydro-2H-imidazo[4,5-c]pyridin-2-one]
30 | 100 to 1000 nM | C=CC(=O)Nc1cccc(-n2c(=O)n(-c3ccc(OCc4ccccc4C)cc3)c3cnccc32)c1 [Example 225, N-(3-(3-(4-((2-methylbenzyl)oxy)phenyl)-2-oxo-2,3-dihydro-1H-imidazo[4,5-c]pyridin-1-yl)phenyl)acrylamide]
31 | 10 to 100 nM | C=CC(=O)Nc1cccc(-n2c(=O)n(-c3ccc(Oc4cccc(OC(C)C)c4)cc3)c3cnccc32)c1 [Example 85, N-(3-(3-(4-(3-isopropoxyphenoxy)phenyl)-2-oxo-2,3-dihydro-1H-imidazo[4,5-c]pyridin-1-yl)phenyl)acrylamide]
32 | 10 to 100 nM | C=CC(=O)Nc1cccc(-n2c(=O)n(-c3ccc(OCc4ccccc4F)c(Cl)c3)c3cnccc32)c1 [Example 235, N-(3-(3-(3-chloro-4-((2-fluorobenzyl)oxy)phenyl)-2-oxo-2,3-dihydro-1H-imidazo[4,5-c]pyridin-1-yl)phenyl)acrylamide]
